Source: patent US20100092443A1, “NOVEL COMBINATIONS OF NITROGENATED HETEROCYCLIC ANTIBACTERIAL COMPOUNDS WITH OTHER ANTIBACTERIAL COMPOUNDS AND THE USE OF SAME AS DRUGS” (priority 2008, published 2010)
Converted amounts (≈) assume the structure as drawn. Read-outs that look alike come from different tables or passages of the source.

Key:
E. coli = assay: microbe, parasite or virus in culture; type: cell-based; settings: Escherichia coli
Description: (§1) In vitro activity, method of dilutions in liquid medium:
(§2) A series of test 96-well microtiter plates are prepared in which the same quantity of sterile nutritive medium is distributed. […] After 24 h of incubation in a 37° C. oven, growth inhibition is evaluated by transillumination, which makes it possible to determine the minimum inhibitory concentrations (MICS) expressed in μg/ml.

E. cloacae = assay: MIC, dilutions in liquid medium, alone and combined with NXL105; type: cell-based; settings: Enterobacter cloacae, AmpC, read-out: MIC
Description: as §1, §2

K. pneumoniae = assay: as above; type: cell-based; settings: Klebsiella pneumoniae, read-out: MIC
Description: as §1, §2

K. oxytoca = assay: as above; type: cell-based; settings: Klebsiella oxytoca, read-out: MIC
C. freundii = assay: as above; type: cell-based; settings: Citrobacter freundii, read-out: MIC
E. aerogenes = assay: as above; type: cell-based; settings: Klebsiella aerogenes, 24 h; E. aerogenes EAR2; Case-R + FEP-R; read-out: MIC
P. aeruginosa (391 HT2) [1] = assay: MICs determined on microplates; type: cell-based, Pseudomonas aeruginosa; settings: Pseudomonas aeruginosa; sensitive strain P. aeruginosa 391 HT2
Description: (§3) The minimum inhibitory concentrations (MICs) of the products to be tested (products alone and combinations) are determined in advance. • For each concentration of product to be tested as well as the control stock, an Erlenmeyer flask containing 18.5 ml Muller-Hinton medium (Ca^++) is prepared. • From an overnight culture in broth or a bacterial suspension of OD (optical density)=1, a 1/100 dilution is prepared. • The sample is cultured with agitation for 2 h at 37° C. • OD is measured: if >0.5, the sample is diluted to 1/10. • Each Erlenmeyer flask is inoculated with 1 ml of the agitated culture or its dilution. The initial inoculum should be 1×10^6 CFU/ml. • The various antibiotic solutions are added at a volume of 0.5 ml and 0.5 ml of medium in the control Erlenmeyer flask. • With a volume of 0.1 ml, the control Erlenmeyer flask is numbered=TO. • The flask is incubated at 37° C. with agitation. • At each sampling point (2, 4, 6, 24, 48 hours), a volume of 0.1 ml is sampled from each Erlenmeyer flask and numbered. • Plates for all the numbered samples are incubated (24 h-48 h) at 37° C.
Bactericidal activity was evaluated on a sensitive strain of P. aeruginosa (391 HT2)

P. aeruginosa (391 HT2) [2] = assay: MICs in a volume of 10 ml, bactericidal conditions (exponential bacterial growth); type: cell-based, Pseudomonas aeruginosa; settings: Pseudomonas aeruginosa
Description: as §3
For the bactericidal tests, MICs are determined in a volume of 10 ml-bactericidal conditions (exponential bacterial growth): […]

In the case of `C[C@H]1[C@H](NC(=O)/C(=N\OC(C)(C)C(=O)O)c2csc(N)n2)C(=O)N1S(=O)(=O)O` [Aztreonam], the MIC (E. coli; 24 h, E. coli 2138, KPC-2 + TEM-1) is reported as 32 µg/mL, the MIC (E. coli; 24 h, E. coli (no alias), CTX-M-15 + TEM-1 + OXA-1) is reported as 4 µg/mL and the MIC (E. coli; 24 h, E. coli IND, VEB-1 + CMY-2) is reported as > 32 µg/mL. It also gave an MIC (E. coli; 24 h, E. coli TN06, CTX-M-2 + TEM-1) of 8 µg/mL, an MIC (E. coli; 24 h, E. coli TN13, CTX-M-14 + CMY-2 + TEM-1) of 16 µg/mL and an MIC (E. coli; 24 h, E. coli Tunisie clone E4, CTX-M-16 + TEM-1) of 32 µg/mL. It also gave an MIC (E. coli; E. coli (no alias), Cephalosporinase, read-out: MIC) of 16 µg/mL (≈ 36.7 µM), an MIC (E. coli; E. coli (no alias), SHV-4) of 16 µg/mL (≈ 36.7 µM) and an MIC (E. coli; E. coli (no alias), TEM-3) of 8 µg/mL (≈ 18.4 µM). The MIC (E. cloacae; E. cloacae (no alias)) was 16 µg/mL, the MIC (E. cloacae; E. cloacae) was 16 µg/mL and the MIC (K. pneumoniae; 24 h, K. pneumoniae 60, SHV-2 + TEM-2 + PER) was 16 µg/mL. The MIC (K. pneumoniae; 24 h, K. pneumoniae 157, SHV-5 + TEM-26) was 16 µg/mL, the MIC (K. pneumoniae; 24 h, K. pneumoniae 236, SHV-5 + TEM-10) was 16 µg/mL and the MIC (K. pneumoniae; 24 h, K. pneumoniae 253, SHV-2 + TEM-12 + CTX-M-2) was 16 µg/mL. It also gave an MIC (K. pneumoniae; 24 h, K. pneumoniae 427, SHV-1 + TEM-1B + CTX-M-3) of 4 µg/mL, an MIC (K. pneumoniae; 24 h, K. pneumoniae 441, SHV-1 + TEM-2 + PER) of 16 µg/mL and an MIC (K. pneumoniae; 24 h, K. pneumoniae 444, SHV-5 + TEM-2 + PER) of 8 µg/mL. For the same molecule, the MIC (K. pneumoniae; 24 h, K. pneumoniae 1734, FOX-3 + TEM-1) was 8 µg/mL, the MIC (K. pneumoniae; 24 h, K. pneumoniae 9701, CMY-4 + TEM-1) was 16 µg/mL and the MIC (K. pneumoniae; 24 h, K. pneumoniae Patient 1BHR, VIM-4 + CTX-M-15 = CMY-4 + TEM-1) was 16 µg/mL. The MIC (K. pneumoniae; 24 h, K. pneumoniae SLK54, ACC-1 + TEM-1) was 2 µg/mL, the MIC (K. pneumoniae; 24 h, K. pneumoniae TN58467, DHA-1 + SHV-2a + TEM-1) was 16 µg/mL and the MIC (K. pneumoniae; ATCC700603, K. pneumoniae ATCC 700603, SHV-18) was 8 µg/mL. It also gave an MIC (K. pneumoniae; K. pneumoniae 26, SHV-5) of 16 µg/mL, an MIC (K. pneumoniae; K. pneumoniae KP04, CTX-M-14) of 16 µg/mL and an MIC (K. pneumoniae; K. pneumoniae VAKP, KPC-2) of 16 µg/mL. The MIC (K. oxytoca; K. oxytoca 1431, TEM-129) was > 32 µg/mL, the MIC (K. oxytoca; K. oxytoca 16944, OXY-2, TEM-1) was 32 µg/mL and the MIC (C. freundii; 24 h, C. freundii (no alias), AmpC + TEM-1) was 16 µg/mL. The MIC (C. freundii; C. freundii (no alias, table row r121), AmpC) was 8 µg/mL, the MIC (C. freundii; C. freundii (no alias, table row r122), AmpC) was 32 µg/mL and the MIC (C. freundii; C. freundii (no alias, table row r123), AmpC) was 16 µg/mL. The MIC (C. freundii; C. freundii (no alias, table row r125), AmpC) was 4 µg/mL and the MIC (E. aerogenes) was 16 µg/mL.
`O=C(O)c1cn(C2CC2)c2cc(N3CCNCC3)c(F)cc2c1=O` [Ciprofloxacine] showed an MIC (P. aeruginosa (391 HT2) [1]) of 1 µg/mL.
Molecule `NC[C@H]1O[C@H](O[C@H]2[C@H](O)[C@@H](O[C@H]3O[C@H](CO)[C@@H](O)[C@H](N)[C@H]3O)[C@H](N)C[C@@H]2N)[C@H](N)C[C@@H]1O` [Tobramycin] has an MIC (P. aeruginosa (391 HT2) [1]) of 1 µg/mL and an MIC (P. aeruginosa (391 HT2) [2]) of 1 µg/mL.
